Experimental data reported in patent US20250230193A1, “CYCLIC COMPOUND HAVING SELECTIVE KRAS INHIBITORY EFFECT ON HRAS AND NRAS” (CHUGAI SEIYAKU KABUSHIKI KAISHA, priority 2022, published 2025).

Tests used:
[1] = biological target: GDP-bound NRAS wild-type protein (Homo sapiens, UniProt P01111); assay: Binding to NRAS by surface plasmon resonance (SPR), Single Cycle Kinetics; conditions: SPR; KD ratio class
[2] = biological target: GDP-bound HRAS wild-type protein (Homo sapiens, UniProt P01112); assay: Binding to HRAS by surface plasmon resonance (SPR), Single Cycle Kinetics; conditions: SPR; KD ratio class
[3] = test system: human lung cancer strain NCI-H441; assay: cells; conditions: NCI-H441, 96 h, read-out: NCI-H441 IC50 (nM)

Sequence of GDP-bound HRAS wild-type protein (P01112 whole entry): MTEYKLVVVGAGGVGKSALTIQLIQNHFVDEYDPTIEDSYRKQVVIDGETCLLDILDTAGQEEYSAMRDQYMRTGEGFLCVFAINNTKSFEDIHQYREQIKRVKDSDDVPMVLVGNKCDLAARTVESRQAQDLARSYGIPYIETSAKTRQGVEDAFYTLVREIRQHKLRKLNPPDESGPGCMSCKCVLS
Sequence of GDP-bound NRAS wild-type protein (P01111 whole entry): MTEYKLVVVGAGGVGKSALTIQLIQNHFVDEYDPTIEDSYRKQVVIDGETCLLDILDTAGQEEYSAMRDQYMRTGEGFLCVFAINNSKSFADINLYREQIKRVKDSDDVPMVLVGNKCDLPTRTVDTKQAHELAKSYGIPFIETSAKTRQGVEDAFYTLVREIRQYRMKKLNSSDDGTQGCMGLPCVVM

SMILES | NRAS/KRAS (ratio of KD value for GDP-bound NRAS wild-type protein to KD value for KRAS) [1] | HRAS/KRAS (ratio of KD value for GDP-bound HRAS wild-type protein to KD value for KRAS) [2] | IC50 [3] [nM]
CCO[C@@H]1C[C@H]2C(=O)NC3(CCC3)C(=O)N(C)[C@@H](C(CC)CC)C(=O)N(C)[C@H](C(=O)N(C)C)CC(=O)N(C)[C@@H](C)C(=O)N[C@@H]([C@@H](C)CC)C(=O)N(C)CC(=O)N(C)[C@H]3C/C=C\CCN(C3=O)[C@@H](Cc3ccc(C(F)(F)F)cc3)C(=O)N(C)CC(=O)N[C@@H](CCc3ccc4sccc4c3)C(=O)N2C1 [PP1222] | A (a compound having 10 or more and less than 20 is denoted as A) | A (a compound having 10 or more and less than 20 is denoted as A) | 301
CCCCCC[C@H]1C(=O)N[C@@H]([C@@H](C)CC)C(=O)N(C)CC(=O)N(C)[C@H]2C/C=C\CCN(C2=O)[C@@H](Cc2ccc(C(F)(F)F)cc2)C(=O)N(C)CC(=O)N[C@@H](CCc2ccc(Cl)c(Cl)c2)C(=O)N2C[C@H](OCC)C[C@H]2C(=O)NC2(CCC2)C(=O)N(C)[C@@H](C2CCCC2)C(=O)N(C)[C@H](C(=O)N(C)C)CC(=O)N1C [PP1252] | AA (a compound having 20 or more is denoted as AA) | A (a compound having 10 or more and less than 20 is denoted as A) | 51.2
CC[C@H](C)[C@@H]1NC(=O)[C@H](CC)N(C)C(=O)C[C@@H](C(=O)N(C)C)N(C)C(=O)[C@H](C2CCCC2)N(C)C(=O)C2(CCCC2)NC(=O)[C@@H]2CCCN2C(=O)[C@H](CCc2cc(F)c(C(F)(F)F)c(F)c2)NC(=O)CN(C)C(=O)[C@H](Cc2ccc(C(F)(F)F)cc2)N2CC(C)[C@@H](C)C[C@@H](C2=O)N(C)C(=O)CN(C)C1=O (stereo partly drawn) [PP1349] | C (A compound having a KD ratio of 0.1 or more and less than 3 is denoted as C) | B (a compound having 3 or more and less than 10 is denoted as B) | 14.7
CCO[C@@H]1C[C@H]2C(=O)NC3(CCC3)C(=O)N(C)[C@@H](C(CC)CC)C(=O)N(C)[C@H](C(=O)N(C)C)CC(=O)N(C)[C@@H](CC(C)C)C(=O)N[C@@H]([C@@H](C)CC)C(=O)N(C)CC(=O)N(C)[C@H]3C/C=C\CCN(C3=O)[C@@H](Cc3ccc(C(F)(F)F)cc3)C(=O)N(C)CC(=O)N[C@@H](CCc3cc(F)c(Cl)c(F)c3)C(=O)N2C1 [PP1232] | A (a compound having 10 or more and less than 20 is denoted as A) | A (a compound having 10 or more and less than 20 is denoted as A) | 59.7
CCCC[C@H]1C(=O)N[C@@H]([C@@H](C)CC)C(=O)N(C)CC(=O)N(C)[C@H]2C/C=C\CCN(C2=O)[C@@H](Cc2ccc(C(F)(F)F)cc2)C(=O)N(C)CC(=O)N[C@@H](CCc2cc(F)c(C(F)(F)F)c(F)c2)C(=O)N2C[C@H](OCC)C[C@H]2C(=O)NC2(CCC2)C(=O)N(C)[C@@H](C2CCCC2)C(=O)N(C)[C@H](C(=O)N(C)CC)CC(=O)N1C [PP1558] | A (a compound having 10 or more and less than 20 is denoted as A) | B (a compound having 3 or more and less than 10 is denoted as B) | 3.4
CCO[C@@H]1C[C@H]2C(=O)NC3(CCC3)C(=O)N(C)[C@@H](C3CCCC3)C(=O)N(C)[C@H](C(=O)N(C)C)CC(=O)N(C)[C@@H](CC3CC3)C(=O)N[C@@H]([C@@H](C)CC)C(=O)N(C)CC(=O)N(C)[C@H]3C/C=C\CCN(C3=O)[C@@H](Cc3ccc(F)cc3)C(=O)N(C)CC(=O)N[C@@H](CCc3ccc(Cl)c(Cl)c3)C(=O)N2C1 [PP1478] | A (a compound having 10 or more and less than 20 is denoted as A) | A (a compound having 10 or more and less than 20 is denoted as A) | 102
CCO[C@@H]1C[C@H]2C(=O)NC3(CCC3)C(=O)N(C)[C@@H](C(CC)CC)C(=O)N(C)[C@H](C(=O)N(C)C)CC(=O)N(C)[C@@H](CC)C(=O)N[C@@H]([C@@H](C)CC)C(=O)N(C)CC(=O)N(C)[C@H]3C/C=C\CCN(C3=O)[C@@H](Cc3ccc(C(F)(F)F)cc3)C(=O)N(C)CC(=O)N[C@@H](CCc3cc(F)c(Cl)c(F)c3)C(=O)N2C1 [PP1230] | A (a compound having 10 or more and less than 20 is denoted as A) | A (a compound having 10 or more and less than 20 is denoted as A) | 110
CC[C@H](C)[C@@H]1NC(=O)[C@H](CC2CC2)N(C)C(=O)C[C@@H](C)N(C)C(=O)[C@H](C2CCCC2)N(C)C(=O)C2(CCC2)NC(=O)[C@H](CC(F)F)N(C)C(=O)[C@H](CCc2cc(F)c(C(F)(F)F)c(F)c2)NC(=O)CN(C)C(=O)[C@H](Cc2ccc(C(F)(F)F)cc2)N2CC/C=C\C[C@@H](C2=O)N(C)C(=O)CN(C)C1=O [PP1405] | A (a compound having 10 or more and less than 20 is denoted as A) | A (a compound having 10 or more and less than 20 is denoted as A) | 466
CCO[C@@H]1C[C@H]2C(=O)NC3(CC(C)(C)C3)C(=O)N(C)[C@@H](C3CCCC3)C(=O)N(C)[C@H](C(=O)N(C)C)CC(=O)N(C)[C@@H](CC3CCC3)C(=O)N[C@@H]([C@@H](C)CC)C(=O)N(C)CC(=O)N(C)[C@H]3C/C=C\CCN(C3=O)[C@@H](Cc3ccc(C(F)(F)F)cc3)C(=O)N(C)CC(=O)N[C@@H](CCc3ccc(C(F)(F)F)c(OC)c3)C(=O)N2C1 [PP1564] | A (a compound having 10 or more and less than 20 is denoted as A) | A (a compound having 10 or more and less than 20 is denoted as A) | 3
CCO[C@@H]1C[C@H]2C(=O)NC3(CCC3)C(=O)N(C)[C@@H](C3CCCC3)C(=O)N(C)[C@H](C)CC(=O)N(C)[C@@H](CC(C)C)C(=O)N[C@@H]([C@@H](C)CC)C(=O)N(C)CC(=O)N(C)[C@H]3C/C=C\CCN(C3=O)[C@@H](Cc3ccc(F)cc3)C(=O)N(C)CC(=O)N[C@@H](CCc3cc(F)c(C(F)(F)F)c(F)c3)C(=O)N2C1 [PP1494] | B (a compound having 3 or more and less than 10 is denoted as B) | B (a compound having 3 or more and less than 10 is denoted as B) | 142
CCC[C@H]1C(=O)N[C@@H]([C@@H](C)CC)C(=O)N(C)CC(=O)N(C)[C@H]2C/C=C\CCN(C2=O)[C@@H](Cc2ccc(C(F)(F)F)cc2)C(=O)N(C)CC(=O)N[C@@H](CCc2ccc(Cl)c(Cl)c2)C(=O)N2C[C@H](OCC)C[C@H]2C(=O)NC2(CCC2)C(=O)N(C)[C@@H](C(CC)CC)C(=O)N(C)[C@H](C(=O)N(C)C)CC(=O)N1C [PP1216] | AA (a compound having 20 or more is denoted as AA) | A (a compound having 10 or more and less than 20 is denoted as A) | 19.8
CCO[C@@H]1C[C@H]2C(=O)NC3(CCC3)C(=O)N(C)[C@@H](C(CC)CC)C(=O)N(C)[C@H](C(=O)N3CCCC3)CC(=O)N(C)[C@@H](C)C(=O)N[C@@H]([C@@H](C)CC)C(=O)N(C)CC(=O)N(C)[C@H]3C/C=C\CCN(C3=O)[C@@H](CC3CCCCC3)C(=O)N(C)CC(=O)N[C@@H](CCc3cc(F)c(C(F)(F)F)c(F)c3)C(=O)N2C1 [PP1434] | A (a compound having 10 or more and less than 20 is denoted as A) | A (a compound having 10 or more and less than 20 is denoted as A) | 112
CC[C@H](C)[C@@H]1NC(=O)[C@H](CC2CCC2)N(C)C(=O)C[C@@H](C(=O)N2CCOCC2)N(C)C(=O)[C@H](C2CCCC2)N(C)C(=O)C2(CCC2)NC(=O)[C@@H]2CCCN2C(=O)[C@H](CCc2ccc(C(F)(F)F)c(Cl)c2)NC(=O)CN(C)C(=O)[C@H](Cc2ccc(C(F)(F)F)cc2)N2C[C@H](C)CC[C@@H](C2=O)N(C)C(=O)[C@@H]2CCN2C1=O [PP1345] | A (a compound having 10 or more and less than 20 is denoted as A) | B (a compound having 3 or more and less than 10 is denoted as B) | 34.8
CCO[C@@H]1C[C@H]2C(=O)NC3(CCCC3)C(=O)N(C)[C@@H](C3CCCC3)C(=O)N(C)[C@H](C(=O)N(C)C)CC(=O)N(C)[C@@H](CC(C)C)C(=O)N[C@@H]([C@@H](C)CC)C(=O)N(C)CC(=O)N(C)[C@H]3C/C=C\CCN(C3=O)[C@@H](CC3CCCCC3)C(=O)N(C)CC(=O)N[C@@H](CCc3cc(F)c(C(F)(F)F)c(F)c3)C(=O)N2C1 [PP1473] | A (a compound having 10 or more and less than 20 is denoted as A) | A (a compound having 10 or more and less than 20 is denoted as A) | 36.6
CCO[C@@H]1C[C@H]2C(=O)NC3(CCC3)C(=O)N(C)[C@@H](C3CCCC3)C(=O)N(C)[C@H](C)CC(=O)N(C)[C@@H](CC(C)C)C(=O)N[C@@H]([C@@H](C)CC)C(=O)N(C)CC(=O)N(C)[C@H]3C/C=C\CCN(C3=O)[C@@H](Cc3ccc(F)cc3C)C(=O)N(C)CC(=O)N[C@@H](CCc3cc(F)c(C(F)(F)F)c(F)c3)C(=O)N2C1 [PP1493] | B (a compound having 3 or more and less than 10 is denoted as B) | B (a compound having 3 or more and less than 10 is denoted as B) | 135
